Reference: patent US7767789B2, “Truncated proteins as cancer markers” (University Hopitals of Cleveland, priority 2005, dated 2010)
Like-named read-outs stand apart in the source and are kept apart here. Values belong to the molecule of their own block, whether it stands above or below them. Residues, ends and D or L forms follow the SMILES beside them. *: point of attachment. Cbz = O=C(OCc1ccccc1)*; CH2F = FC*

Columns and labels:
CaSki cells [1] = test: DNA solubilization assay (apoptosis); format: cell-based, human; details: for BzATP-induced DNA solubilization after pretreatment: 100 μM BzATP 9 h, 24 h 2 nM epinephrine ± 0.2 nm EGF, zVAD-FMK 30 min before, 50 /ZM; for effect on BzATP-induced apoptosis (DNA solubilization): pretreatment: EGF 0.2 nM, zinterol/terbutaline 1 μM 24 h, forskolin 10 μM 14 h with IBMX, isoproterenol 10 μM, phenylephrine 100 μM; for effect on zinterol (1 μM)-induced inhibition of BzATP-induced apoptosis: cotreatment 24 h: 10 μM propranolol, 100 nM ICI 118,551, 30 μM H-89 dihydrochloride
Procedure: Twenty-four hours before the end of the experiment, cells were labeled with [^3H]thymidine (specific activity, 93 Ci/mmol; 5 μCi/1×10^6 cells) for 16 h. The medium was removed, and cells were washed three times with fresh medium lacking [^3H]thymidine and were incubated in the same medium for an additional 6 h. At the end of incubation, the supernatant was stored, and cells were lysed in 0.5 ml lysis buffer (10 mM Tris-HCl, pH 7.5; plus 1 mM EDTA-0.2% Triton X-100) for 1 h at 4° C. The intact chromatin was separated from the fragmented DNA by 5 min centrifugation at 4° C. in Eppendorf microcentrifuge at 12,000×g. The supernatant (lysate) was stored, while the pellet was resuspended in 0.5 ml of 1% sodium dodecyl sulfate (SDS). The radioactivity contained in the supernatants, lysates; and pellets was counted in a scintillation counter, and DNA fragmentation was calculated as: [% Solubilized DNA]=([cpm supernatant+cpm lysates]/[cpm supernatant+cpm lysate+cpm pellet])×100.

[2] = target: T1, full-length human P2X7 receptor (HEK-293-hP2X7-R cells) (Homo sapiens, UniProt Q99572); test: Ethidium bromide influx in HEK-293-hP2X7-R and wild-type HEK293 cells on filters; format: cell-based
T1 construct: For transfections, the full length human P2X7 receptor; expressed in transfected cells; host or cells: HEK-293, pcDNA-6 vector
T1 sequence (Q99572 1-595): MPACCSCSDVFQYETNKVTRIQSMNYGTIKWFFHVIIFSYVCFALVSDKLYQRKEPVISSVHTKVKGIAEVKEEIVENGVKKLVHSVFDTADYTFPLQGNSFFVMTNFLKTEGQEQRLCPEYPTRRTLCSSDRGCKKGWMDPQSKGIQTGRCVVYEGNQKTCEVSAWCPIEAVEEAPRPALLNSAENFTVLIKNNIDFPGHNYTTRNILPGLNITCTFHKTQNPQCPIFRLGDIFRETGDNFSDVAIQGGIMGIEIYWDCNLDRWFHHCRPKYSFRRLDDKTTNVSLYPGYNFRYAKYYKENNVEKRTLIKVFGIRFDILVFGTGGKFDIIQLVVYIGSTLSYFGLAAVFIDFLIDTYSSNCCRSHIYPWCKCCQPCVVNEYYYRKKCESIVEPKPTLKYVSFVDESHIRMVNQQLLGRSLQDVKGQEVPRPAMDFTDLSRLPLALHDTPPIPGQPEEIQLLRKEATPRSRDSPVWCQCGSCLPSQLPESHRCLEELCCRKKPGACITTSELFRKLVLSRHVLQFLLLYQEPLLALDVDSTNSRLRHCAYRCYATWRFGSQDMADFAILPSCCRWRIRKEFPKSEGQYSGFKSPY

[3] = target: T1, full-length human P2X7 receptor (HEK-293-hP2X7-R cells); test: Cytosolic calcium in HEK-293-hP2X7-R and wild-type HEK293 cells on filters; format: cell-based
Bcl-2 = details: cited from earlier work
P2X7 receptor = details: cited from earlier work
[4] = tested on: hECEs, ECE16-1, HT3, CaSki, SiHa and Hela cells; details: cited from earlier work
caspase-9 = details: hECEs and CaSki cells; cited from earlier work
[5] = tested on: β-arrestin-2-GFP in HEK-293-hP2X7-R cells; test: Real-time confocal microscopy of β-arrestin-2-GFP, HEK-293 cells; format: cell-based, human
Procedure: (§1) CaSki cells transfected with the β-arrestin-2-GFP, or HEK-293 cells co-transfected with the full-length human P2X7-receptor and the β-arrestin-2-GFP were plated on 35-mm glass-bottom culture dishes (MatTek Corporation, Ashland, MA). Dishes contained a centered, 1 cm well formed from a glass coverslip sealed hole in the plastic. Two hours before experiments the medium was replaced with serum-free medium supplemented with 10 mM HEPES. The distribution of the β-arrestin-2-GFP was visualized before and after treatment with the agonist by real-time confocal microscopy. Imaging of the β-arrestin-2-GFP fluorescence in the same cells was performed on a Zeiss laser-scanning confocal microscope (LSM-510) using a heated (37° C.) microscope stage. Barak et al., “A beta-arrestin/green fluorescent protein biosensor for detecting G protein-coupled receptor activation” J Biol Chem 272:27497-27500 (1997).
(§2) Images were collected sequentially before and after treatment with agonist for 0-30 min at 37° C. using single line excitation (488 nm).

[6] = target: T2, β2-adrenoceptor (CaSki cells) (Homo sapiens, UniProt P07550); test: Binding studies, β-adrenoceptor radioligand
T2 construct: endogenous in cells; host or cells: CaSki cells on filters (intact cells, 4 °C)

CaSki cells [7] = test: Number of CaSki cells in culture; format: cell-based, human; details: serum-free; 0.2 nM EGF, 2 nM epinephrine, or both, 24 h
Procedure: Near-confluent cultures of CaSki cells on filters were shifted for 14 hours to serum-free medium supplemented with 1% BSA and were treated in the same medium with 0.2 nM EGF, 2 nM epinephrine, or both for an additional 24 h. At the completion of treatments, cells were harvested off the filters and counted.

[8] = tested on: α-adrenoceptors (CaSki cells); test: Binding studies, α-adrenoceptor radioligands; parameters: species or system human; details: not shown
Procedure: Binding studies of the adrenoceptors and the EGF receptor used a similar method. Two hundred fifty microliters of binding medium (serum-free DMEM, 0.1% BSA, 10 mM HEPES) containing […] of the radioligand were added to the apical container of the filter, and 500/μl of the same solution to the basolateral container; parallel tubes contained an additional 200-fold excess radioinert ligand. The cells were then incubated at 4° C. for 3 h; at the completion of incubations cells were washed three times with ice-cold HBSS containing 0.1% BSA. Cells were solubilized in 0.2 N NaOH, and the bound ligand was separated on glass fiber filters (Whatman, GF/C, Tonawanda, N.Y.) by vacuum filtration. The associated radioligand was counted either in a β-scintillation counter (for [^3H] associated ligands) or in a γ-counter (for 125I] associated ligands). […] (all at 1 μCi/ml; specific activity, about 90 Ci/mmo]; Amersham), and [^125I]EGF (5 μCi/ml; specific activity, about 100 Ci/mmol; Biomedical Technology, Stoughton, Mass.). […] Human recombinant EGF was from R&D Systems (Minneapolis, Minn.). Specific receptor binding was expressed per milligram DNA, and data were analyzed by Scatchard plot.

[9] = target: P2X7 receptor (HEK-293-hP2X7-R cells) (Homo sapiens, UniProt Q99572)
[10] = tested on: β-arrestin-2-GFP in CaSki cells; test: Real-time confocal microscopy of β-arrestin-2-GFP, CaSki cells; format: cell-based, human; details: CaSki transfected with β-arrestin-2-GFP; 250 μM ATP
Procedure: as §1, §2

[11] = HEK-293-hP2X7-R with β-arrestin-2-GFP, 10 μM angiotensin, 10 μM UTP

T2 sequence (P07550 whole entry): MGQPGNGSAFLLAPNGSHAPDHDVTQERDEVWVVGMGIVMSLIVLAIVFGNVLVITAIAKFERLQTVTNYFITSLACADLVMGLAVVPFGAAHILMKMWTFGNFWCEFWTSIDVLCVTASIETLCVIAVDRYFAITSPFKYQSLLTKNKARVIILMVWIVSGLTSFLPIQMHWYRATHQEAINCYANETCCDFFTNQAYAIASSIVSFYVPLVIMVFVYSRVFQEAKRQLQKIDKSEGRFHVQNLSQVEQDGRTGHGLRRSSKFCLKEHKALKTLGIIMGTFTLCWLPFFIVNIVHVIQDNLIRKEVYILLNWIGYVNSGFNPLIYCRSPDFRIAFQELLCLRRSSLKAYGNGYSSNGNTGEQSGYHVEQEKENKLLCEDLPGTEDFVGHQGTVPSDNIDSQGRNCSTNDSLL

Molecule: COC(=O)C[C@H](NC(=O)[C@H](C)NC(=O)[C@@H](NC(=O)OCc1ccccc1)C(C)C)C(=O)CF [zVAD-FMK, Benzyloxy-vallne-alardne-aspartate-O-methylfluoromethylketone] (Cbz-Val-Ala-Asp(OMe)-CH2F)
BzATP-induced DNA solubilization after pretreatment (CaSki cells [1]): about 1.4%

effect on ATP/BzATP-induced influx of ethidium bromide [2]: inhibited | effect on ATP/BzATP-induced sustained calcium increase [3]: inhibited
Molecule: Nc1ncnc2c1ncn2[C@@H](C=O)O[C@@H](C=O)COP(=O)(O)OP(=O)(O)OP(=O)(O)O [oATP, oxidized ATP]

Molecule: 17β-estradiol [estrogen]
Bcl-2 regulation (Bcl-2; CaSki cells): upregulated Bcl-2 | Bcl-2 regulation (Bcl-2; SiHa and Hela cells): did not find estrogen regulation of Bcl-2 | BzATP-induced calcium influx (P2X7 receptor; cancer CaSki cells): only a mild effect | BzATP-induced calcium influx (P2X7 receptor; normal hECEs): did block BzATP-induced calcium influx | P2X7 receptor-induced apoptosis ([4]; SiHa and Hela cells): no effect | earliest effects after adding the hormone [4]: 1 to 3 h | baseline and P2X7 receptor-induced apoptosis ([4]; hECEs, ECE16-1, HT3, and CaSki cells): blocked baseline and P2X7 receptor-induced apoptosis | P2X7 receptor-induced activation of caspase-9 (caspase-9): blocked P2X7 receptor-induced activation of caspase-9

Molecule: CC/C(=C(\c1ccccc1)c1ccc(OCCN(C)C)cc1)c1ccccc1 [tamoxifen]
inhibition of the estrogen antiapoptotic action [4]: lack of inhibition

Molecule: angiotensin
effect on the GFP fluorescence [5, 11]: Neither angiotensin, nor UTP, had a significant effect

Molecule: CC(C)(C)NCC(O)COc1cccc2[nH]c(C#N)c([125I])c12 (stereo not drawn) [[^125I]cyanopindolol]
binding activity [6]: about 15 fmol/mg DNA | binding activity as receptors per cell [6]: ~10,000 receptors/cell

Molecule: CNC[C@H](O)c1ccc(O)c(O)c1 [epinephrine]
BzATP-induced DNA solubilization after pretreatment (CaSki cells [1]): 4.6% | number of cells in culture (CaSki cells [7]): increased the number of cells in culture

Molecule: TNFα
DNA solubilization (CaSki cells [1]; 100 μM BzATP for 9 h or 10 μM TNFα for 14 h): significantly increased DNA solubilization

Molecule: [^3H]tamsulosin
specific binding [8]: no specific binding

Molecule: CNC[C@H](O)c1cccc(O)c1 [phenylephrine]
effect on BzATP-induced apoptosis (DNA solubilization) (CaSki cells [1]): no effect

Molecule: CC(C)NCC(O)c1ccc(O)c(O)c1 (stereo not drawn) [isoproterenol]
effect on BzATP-induced apoptosis (DNA solubilization) (CaSki cells [1]): no effect

Molecule: Cl.Cl.O=S(=O)(NCCNC/C=C/c1ccc(Br)cc1)c1cccc2cnccc12 [H-89 dihydrochloride]
effect on zinterol (1 μM)-induced inhibition of BzATP-induced apoptosis (CaSki cells [1]): blocked

Molecule: COc1cc2nc(N3CCN(C(=O)c4ccco4)CC3)nc(N)c2cc1OC [[^3H]prazosin]
specific binding [8]: no specific binding

Molecule: CC(C)(C)NCC(O)c1cc(O)cc(O)c1 (stereo not drawn) [terbutaline]
effect on BzATP-induced apoptosis (DNA solubilization) (CaSki cells [1]): inhibited

Molecule: O=c1ccn([C@@H]2O[C@H](COP(=O)(O)OP(=O)(O)OP(=O)(O)O)[C@@H](O)[C@H]2O)c(=O)[nH]1 [UTP]
effect on the GFP fluorescence [5, 11]: Neither angiotensin, nor UTP, had a significant effect | effect on cytosolic calcium levels ([3]; not shown): nor did the nucleotide UTP have any appreciable effect

Molecule: Nc1ncnc2c1ncn2[C@@H]1O[C@H](COP(=O)(O)OP(=O)(O)OP(=O)(O)O)[C@@H](O)[C@H]1O [ATP, adenosine triphosphate]
65 KDa and 18 KDa forms in the cytosol ([9]; HEK-293-hP2X7-R cells): biphasic change | 18 KDa form in the membrane-enriched fraction ([9]; HEK-293-hP2X7-R, began 10 min after treatment): gradual increase | time to redistribution of the GFP fluorescence towards cell periphery ([5]; HEK-293-hP2X7-R co-transfected with β-arrestin-2-GFP, 250 μM ATP): ≤ 5 min | duration of redistribution effect ([5]; HEK-293-hP2X7-R with β-arrestin-2-GFP, 250 μM ATP): at least 10 minutes | effect on the GFP fluorescence ([5]; HEK-293 cells transfected with only β-arrestin-2-GFP, 250 μM ATP): no significant effect | time to re-distribution of GFP fluorescence towards cell periphery [10]: ≤ 3 min | Cai transients [3]: did not induce Cai transients | sustained cytosolic calcium increase [3]: induced sustained Ci increase

Molecule: CC(=O)[C@H]1CC[C@H]2[C@@H]3CCC4=CC(=O)CC[C@]4(C)[C@H]3CC[C@]12C [progesterone]
inhibition of the estrogen antiapoptotic action [4]: lack of inhibition

Molecule: Cc1ccc(OCC(O)C(C)NC(C)C)c2c1CCC2 (stereo not drawn) [ICI 118,551]
effect on zinterol (1 μM)-induced inhibition of BzATP-induced apoptosis (CaSki cells [1]): blocked

Molecule: CC(C)NCC(O)COc1cccc2ccccc12 (stereo not drawn) [propranolol]
effect on zinterol (1 μM)-induced inhibition of BzATP-induced apoptosis (CaSki cells [1]): blocked

effect on ATP/BzATP-induced influx of ethidium bromide [2]: inhibited | effect on ATP/BzATP-induced sustained calcium increase [3]: inhibited
Molecule: CN([C@@H](Cc1ccc(OS(=O)(=O)c2cccc3cnccc23)cc1)C(=O)N1CCN(c2ccccc2)CC1)S(=O)(=O)c1cccc2cnccc12 [KN-62, 1-[N,O-bis(5-isoquinolinesulfonyl)-N-methyl-L-tyrosyl]-4-phenylpiperazine]

Molecule: CC(C)(Cc1ccccc1)NCC(O)c1ccc(O)c(NS(C)(=O)=O)c1 (stereo not drawn) [zinterol]
effect on TNFα-induced increase in DNA solubilization (CaSki cells [1]; pretreatment 24 h: 1 μM zinterol or 0.2 nM EGF): no effect | effect on BzATP-induced apoptosis (DNA solubilization) (CaSki cells [1]): inhibited

Molecule: C[C@]12CC[C@@H]3c4ccc(O)cc4C[C@@H](CCCCCCCCC[S+]([O-])CCCC(F)(F)C(F)(F)F)[C@H]3[C@@H]1CC[C@@H]2O (stereo partly drawn) [ICI-182780]
inhibition of the estrogen antiapoptotic action [4]: lack of inhibition
